The values below come from ChEMBL document CHEMBL1201862, “PubChem BioAssay data set” (2004).

Test systems include A498; ACHN; BT-549; COLO 205; HOP-62; LOX IMVI; MCF7; MDA-MB-231; MDA-N; MOLT-4; Malme-3M; NCI-H226; NCI/ADR-RES; SK-MEL-28; SNB-19; SR; SW-620; T47D; UACC-257.
Holding throughout (assay): NCI tumour cell line growth inhibition, 48 h

Structures are written as SMILES.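 Interpolation was linear, between the two tested concentrations surrounding the appropriate level; five concentrations were tested over 48 hours in 96-well plates. Abbreviation: GI50, concentration required for 50% inhibition of growth.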 The source made the active and inactive calls. Cut-off read from the data, not from the text of the source: active = GI50 up to about 1.1 µM and inactive = higher.

Regarding `CO/N=C1\CC(C)N2C(=O)C(C(C)C)NC(=O)C(NC(=O)c3c4nc5c(C(=O)NC6C(=O)NC(C(C)C)C(=O)N7C(C)CC(O)C7C(=O)N(C)CC(=O)N(C)C(C(C)C)C(=O)OC6C)ccc(C)c5oc-4c(C)c(=O)c3N)C(CO)OC(=O)C(C)N(C)C(=O)CN(C)C(=O)C12` (stereo not drawn), the GI50 in the assay with A498 was 1.13 µM (inactive); in the assay with ACHN, 1.26 µM (inactive); in the assay with BT-549, 2.45 µM (inactive); in the assay on COLO 205, 0.411 µM (active); in the assay on HOP-62, 1.57 µM (inactive); in the assay with LOX IMVI, 0.156 µM (active). The GI50 is 0.34 µM (active) with MCF7; 0.656 µM (active) with MDA-MB-231; 0.773 µM (active) with MDA-N; 0.222 µM (active) with MOLT-4; 0.374 µM (active) in the assay with Malme-3M; 1.05 µM (active) in the assay with NCI-H226. Besides, the GI50 in the assay with NCI/ADR-RES is 16.6 µM (inactive); in the assay with SK-MEL-28, 0.791 µM (active); with SNB-19, 0.684 µM (active); with SR it was 0.0184 µM (active); in the assay with SW-620 it was 0.346 µM (active); with T47D it was 0.574 µM (active). The GI50 with UACC-257 is 0.65 µM (active).

Consider `NNC(=O)Nc1nc2ccc(NN)cc2[nH]1`, for which the GI50 in the assay on A498 is 23.6 µM (inactive); with ACHN, 29 µM (inactive); in the assay with BT-549 it was 24 µM (inactive); in the assay on COLO 205, 16.5 µM (inactive); with HOP-62 it was 44.4 µM (inactive); with LOX IMVI, 43.1 µM (inactive). The GI50 in the assay on MCF7 was 26.1 µM (inactive); in the assay with MDA-MB-231 it was 51.9 µM (inactive); with MDA-N, 28.2 µM (inactive); with MOLT-4, 11.6 µM (inactive); with Malme-3M, 59.6 µM (inactive); in the assay with NCI-H226, 20.2 µM (inactive). For the same compound, the GI50 in the assay on NCI/ADR-RES was 47.8 µM (inactive); in the assay with SK-MEL-28 it was 19 µM (inactive); in the assay with SNB-19, 58.5 µM (inactive); with SR, 19.5 µM (inactive); in the assay on SW-620, 23.8 µM (inactive); with T47D, 26.4 µM (inactive). Further, the GI50 in the assay on UACC-257 was 31.8 µM (inactive).

Turning to `NCCN(CCN)/[N+]([O-])=N/O`, the GI50 with A498, in the assay on ACHN, in the assay on BT-549, in the assay on COLO 205, in the assay with HOP-62 and in the assay with LOX IMVI was > 100 µM (inactive) in each case. For the same compound, the GI50 with MCF7 was 47.4 µM (inactive); in the assay on MDA-MB-231, > 100 µM (inactive); with MDA-N, > 100 µM (inactive); in the assay with MOLT-4 it was > 100 µM (inactive); in the assay on Malme-3M, > 100 µM (inactive); with NCI-H226 it was > 100 µM (inactive). Besides, the GI50 with NCI/ADR-RES was 82.8 µM (inactive); in the assay on SK-MEL-28, > 100 µM (inactive); in the assay with SNB-19, > 100 µM (inactive); with SR, 91.2 µM (inactive); in the assay with SW-620, > 100 µM (inactive); in the assay on T47D it was > 100 µM (inactive). The GI50 in the assay with UACC-257 is > 100 µM (inactive).

On to `N#CC(NCc1cccc(CNC(C#N)c2ccccc2)c1)c1ccccc1` (stereo not drawn), for which the GI50 in the assay on A498 is > 100 µM (inactive); in the assay on ACHN, > 100 µM (inactive); with BT-549 it was 24.7 µM (inactive); in the assay on COLO 205, 19.5 µM (inactive); in the assay on HOP-62, > 100 µM (inactive); in the assay with LOX IMVI it was 15 µM (inactive). The GI50 in the assay with MCF7 is 19.3 µM (inactive); in the assay on MDA-MB-231, 26.2 µM (inactive); in the assay on MDA-N, 37.2 µM (inactive); in the assay on MOLT-4 it was 16 µM (inactive); in the assay on Malme-3M, 26.9 µM (inactive); with NCI-H226, > 100 µM (inactive). Further, the GI50 is > 100 µM (inactive) in the assay with NCI/ADR-RES; 18.1 µM (inactive) in the assay on SK-MEL-28; 64.4 µM (inactive) in the assay on SNB-19; 25.8 µM (inactive) with SR; 24.5 µM (inactive) in the assay with SW-620; 48.6 µM (inactive) with T47D. The GI50 with UACC-257 was 59.6 µM (inactive).

For `COC(=O)C1OC(O[C@H]2CC[C@]3(C)[C@H]4CC=C5[C@@H]6CC(C)(C)CC[C@]6(C(=O)OC6OCC(O)C(O)C6OC6OC(C)C(OC7OCC(O)C(O)C7O)C(OC7OCC(O)(CO)C7O)C6O)[C@H](O)C[C@@]5(C)[C@]4(C)CC[C@H]3C2(C)C)C(O)C(O)C1O` (stereo partly drawn), the GI50 was 1.76 µM (inactive) in the assay on A498; 3.31 µM (inactive) in the assay on ACHN; 2.64 µM (inactive) in the assay on BT-549; 1.57 µM (inactive) in the assay with COLO 205; 3.13 µM (inactive) in the assay on HOP-62; 7.64 µM (inactive) in the assay with LOX IMVI. Further, the GI50 with MCF7 was 1.38 µM (inactive); in the assay with MDA-MB-231 it was 2.32 µM (inactive); with MDA-N, 2.01 µM (inactive); in the assay with MOLT-4, 5.13 µM (inactive); in the assay on Malme-3M it was 4.14 µM (inactive); in the assay with NCI-H226 it was 4.23 µM (inactive). Moreover, the GI50 with NCI/ADR-RES was 4.91 µM (inactive); in the assay on SK-MEL-28, 2.2 µM (inactive); with SNB-19 it was 5.57 µM (inactive); with SR, 2.08 µM (inactive); in the assay on SW-620, 6.28 µM (inactive); in the assay on T47D it was 3.86 µM (inactive). In addition, the GI50 in the assay with UACC-257 is 2.96 µM (inactive).

As for `CN1CCC(n2[nH]c(-c3ccccc3)c(Cc3ccccc3)c2=O)CC1` [BENZPIPERYLON], the GI50 in the assay with A498 is 93.3 µM (inactive); in the assay on ACHN, > 100 µM (inactive); in the assay on BT-549, > 100 µM (inactive); in the assay with COLO 205, > 100 µM (inactive); in the assay with HOP-62, > 100 µM (inactive); with LOX IMVI, > 100 µM (inactive). Further, the GI50 in the assay on MCF7 was > 100 µM (inactive); in the assay with MDA-MB-231, > 100 µM (inactive); in the assay on MDA-N it was > 100 µM (inactive); with MOLT-4 it was 19.5 µM (inactive); in the assay with Malme-3M, 90.8 µM (inactive); in the assay with NCI-H226, > 100 µM (inactive). For the same compound, the GI50 in the assay on NCI/ADR-RES was > 100 µM (inactive); in the assay on SK-MEL-28 it was > 100 µM (inactive); with SNB-19, > 100 µM (inactive); with SR it was 33.3 µM (inactive); in the assay with SW-620, > 100 µM (inactive); with T47D, > 100 µM (inactive). Moreover, the GI50 with UACC-257 was > 100 µM (inactive).

As to `Cn1c2ccccc2c2c3c(c4c5ccccc5n(C)c4c21)C(=O)N(Cc1ccccc1)C3=O`, the GI50 in the assay with A498 was 79.1 µM (inactive); in the assay with ACHN it was > 100 µM (inactive); in the assay on BT-549, > 100 µM (inactive); in the assay on COLO 205 it was > 100 µM (inactive); in the assay on HOP-62, 19.3 µM (inactive); in the assay on LOX IMVI, > 100 µM (inactive). Further, the GI50 in the assay with MCF7, in the assay with MDA-MB-231, with MDA-N, with MOLT-4, in the assay on Malme-3M and in the assay with NCI-H226 was > 100 µM (inactive) in each case. Further, the GI50 in the assay on NCI/ADR-RES is > 100 µM (inactive); with SK-MEL-28, > 100 µM (inactive); in the assay with SNB-19 it was > 100 µM (inactive); with SR, 31.8 µM (inactive); in the assay on SW-620 it was > 100 µM (inactive); with T47D it was > 100 µM (inactive). Besides, the GI50 with UACC-257 was > 100 µM (inactive).
